In ChEMBL document CHEMBL3817739, “Synthesis and cytotoxic evaluation of several oleanolic aciduracil/thymine conjugates” (Medchemcomm, 2016):
pIC50: −log10 of the molar value. Active and inactive are the calls of the source. The calls are words filed in the database; no cut-off is given here.

Assays:
[1] = tested on: HepG2; assay: Cytotoxicity against human HepG2 cells assessed as inhibition of cell proliferation after 72 hrs by MTT assay; assay type: functional, cell-based; conditions: HepG2, 72 h
[2] = tested on: A549; assay: Cytotoxicity against human A549 cells assessed as inhibition of cell proliferation after 72 hrs by MTT assay; assay type: functional, cell-based; conditions: A549, 72 h
[3] = Cytotoxicity against human BGC823 cells assessed as inhibition of cell proliferation after 72 hrs by MTT assay; assay type: functional, cell-based; conditions: BGC-823, 72 h
[4] = tested on: MCF7; assay: Cytotoxicity against human MCF7 cells assessed as inhibition of cell proliferation after 72 hrs by MTT assay; assay type: functional, cell-based; conditions: MCF7, 72 h
[5] = Cytotoxicity against human PC3 cells assessed as inhibition of cell proliferation after 72 hrs by MTT assay; assay type: functional, cell-based, PC-3; conditions: Homo sapiens, PC-3, 72 h; read-out: IC50
[6] = tested on: HepG2; assay: Induction of morphological changes in human HepG2 cells assessed as chromatin condensation and fragmentation at 2 to 4 uM after 24 hrs by acridine orange/ethidium bromide double staining based fluorescence microscopy; assay type: functional, cell-based
[7] = tested on: HepG2; assay: Induction of apoptosis in human HepG2 cells assessed as karyopyknosis and chromatin condensation at 2 to 4 uM after 24 hrs by Hoechst 33258 staining based fluorescence microscopy; assay type: functional, cell-based
[8] = tested on: HepG2; assay: Induction of apoptosis in human HepG2 cells assessed as viable cells at 2 uM after 24 hrs by Annexin V-FITC/propidium iodide staining based flow cytometry (reference value: 93.2%); assay type: functional; conditions: HepG2, 24 h, read-out: Activity
[9] = tested on: HepG2; assay: Induction of apoptosis in human HepG2 cells assessed as early apoptotic cells at 2 uM after 24 hrs by Annexin V-FITC/propidium iodide staining based flow cytometry (reference value: 1.36%); assay type: functional
[10] = tested on: HepG2; assay: Induction of apoptosis in human HepG2 cells assessed as late apoptotic cells at 2 uM after 24 hrs by Annexin V-FITC/propidium iodide staining based flow cytometry (reference value: 2.7%); assay type: functional
[11] = tested on: HepG2; assay: Induction of apoptosis in human HepG2 cells assessed as necrotic cells at 2 uM after 24 hrs by Annexin V-FITC/propidium iodide staining based flow cytometry (reference value: 2.7%); assay type: functional
[12] = tested on: HepG2; assay: Induction of apoptosis in human HepG2 cells assessed as viable cells at 4 uM after 24 hrs by Annexin V-FITC/propidium iodide staining based flow cytometry (reference value: 93.2%); assay type: functional; conditions: HepG2, 24 h, read-out: Activity
[13] = tested on: HepG2; assay: Induction of apoptosis in human HepG2 cells assessed as early apoptotic cells at 4 uM after 24 hrs by Annexin V-FITC/propidium iodide staining based flow cytometry (reference value: 1.36%); assay type: functional
[14] = tested on: HepG2; assay: Induction of apoptosis in human HepG2 cells assessed as late apoptotic cells at 4 uM after 24 hrs by Annexin V-FITC/propidium iodide staining based flow cytometry (reference value: 2.7%); assay type: functional
[15] = tested on: HepG2; assay: Induction of apoptosis in human HepG2 cells assessed as necrotic cells at 4 uM after 24 hrs by Annexin V-FITC/propidium iodide staining based flow cytometry (reference value: 2.7%); assay type: functional
[16] = tested on: HepG2; assay: Cell cycle arrest in human HepG2 cells assessed as accumulation at G1 phase at 2 uM after 48 hrs by propidium iodide staining based flow cytometry (reference value: 60.65%); assay type: functional
[17] = tested on: HepG2; assay: Cell cycle arrest in human HepG2 cells assessed as accumulation at G2/M phase at 2 uM after 48 hrs by propidium iodide staining based flow cytometry (reference value: 13.83%); assay type: functional
[18] = tested on: HepG2; assay: Cell cycle arrest in human HepG2 cells assessed as accumulation at S phase at 2 uM after 48 hrs by propidium iodide staining based flow cytometry (reference value: 25.52%); assay type: functional
[19] = tested on: HepG2; assay: Cell cycle arrest in human HepG2 cells assessed as accumulation at G1 phase at 3 uM after 48 hrs by propidium iodide staining based flow cytometry (reference value: 60.65%); assay type: functional
[20] = tested on: HepG2; assay: Cell cycle arrest in human HepG2 cells assessed as accumulation at G2/M phase at 3 uM after 48 hrs by propidium iodide staining based flow cytometry (reference value: 13.83%); assay type: functional
[21] = tested on: HepG2; assay: Cell cycle arrest in human HepG2 cells assessed as accumulation at S phase at 3 uM after 48 hrs by propidium iodide staining based flow cytometry (reference value: 25.52%); assay type: functional
[22] = tested on: HepG2; assay: Cell cycle arrest in human HepG2 cells assessed as accumulation at G1 phase at 4 uM after 48 hrs by propidium iodide staining based flow cytometry (reference value: 60.65%); assay type: functional
[23] = tested on: HepG2; assay: Cell cycle arrest in human HepG2 cells assessed as accumulation at G2/M phase at 4 uM after 48 hrs by propidium iodide staining based flow cytometry (reference value: 13.83%); assay type: functional
[24] = tested on: HepG2; assay: Cell cycle arrest in human HepG2 cells assessed as accumulation at S phase at 4 uM after 48 hrs by propidium iodide staining based flow cytometry (reference value: 25.52%); assay type: functional
[25] = tested on: HepG2; assay: Disruption of mitochondrial membrane potential in human HepG2 cells assessed as mitochondrial membrane potential at 2 uM after 24 hrs by Rhodamine 123 staining based flow cytometry (reference value: 86.2%); assay type: functional
[26] = tested on: HepG2; assay: Disruption of mitochondrial membrane potential in human HepG2 cells assessed as mitochondrial membrane potential at 3 uM after 24 hrs by Rhodamine 123 staining based flow cytometry (reference value: 86.2%); assay type: functional
[27] = tested on: HepG2; assay: Disruption of mitochondrial membrane potential in human HepG2 cells assessed as mitochondrial membrane potential at 4 uM after 24 hrs by Rhodamine 123 staining based flow cytometry (reference value: 86.2%); assay type: functional
[28] = tested on: HepG2; assay: Induction of apoptosis in human HepG2 cells assessed as caspase 3 activation at 4 uM using FITC-DEVD-FMK as probe after 24 hrs by flow cytometry (reference value: 3.3%); assay type: functional
[29] = tested on: HepG2; assay: Induction of apoptosis in human HepG2 cells assessed as caspase 9 activation at 4 uM using FITC-LEHD-FMK as probe after 24 hrs by flow cytometry (reference value: 4.4%); assay type: functional
[30] = tested on: HepG2; assay: Disruption of mitochondrial membrane potential in human HepG2 cells after 24 hrs by Rhodamine 123 staining based flow cytometry; assay type: functional, cell-based

## CC1(C)CC[C@]2(C(=O)OCCCCCCn3ccc(=O)[nH]c3=O)CC[C@]3(C)C(=CC[C@@H]4[C@@]5(C)CC[C@H](O)C(C)(C)[C@@H]5CC[C@]43C)[C@@H]2C1
[1]
  pIC50: 5.40
[2]
  pIC50: 5.50
[3]
  pIC50: 5.89
[4]
  pIC50: 5.56
[5]
  pIC50: 6.74
[6]
  Activity: Active
[7]
  Activity: Active
[8]
  viability at 2 µM: 88%
[9]
  Activity: 1.91%
[10]
  Activity: 7.75%
[11]
  Activity: 2.36%
[12]
  viability at 4 µM: 76.1%
[13]
  Activity: 1.83%
[14]
  Activity: 17.7%
[15]
  Activity: 4.32%
[16]
  Activity: 92.75%
[17]
  Activity: 0.74%
[18]
  Activity: 6.51%
[19]
  Activity: 88.09%
[20]
  Activity: 1.73%
[21]
  Activity: 10.18%
[22]
  Activity: 82.48%
[23]
  Activity: 3.25%
[24]
  Activity: 14.27%
[25]
  Activity: 77.7%
[26]
  Activity: 67%
[27]
  Activity: 49.4%
[28]
  Activity: 31%
[29]
  Activity: 27.9%
[30]
  Activity: Dose-dependent effect
